In patent US8183239B2, “Substituted piperazines and piperidines as modulators of the neuropeptide Y2 receptor” (Janssen Pharmaceutica NV, priority 2005, dated 2012):
Read-outs that look alike come from different tables or passages of the source.

Target: T1, Y2 receptors (Homo sapiens, UniProt P49146)
T1 construct: endogenous in cells; host or cells: KAN-Ts cells (membranes)
T1 sequence (P49146 1-381): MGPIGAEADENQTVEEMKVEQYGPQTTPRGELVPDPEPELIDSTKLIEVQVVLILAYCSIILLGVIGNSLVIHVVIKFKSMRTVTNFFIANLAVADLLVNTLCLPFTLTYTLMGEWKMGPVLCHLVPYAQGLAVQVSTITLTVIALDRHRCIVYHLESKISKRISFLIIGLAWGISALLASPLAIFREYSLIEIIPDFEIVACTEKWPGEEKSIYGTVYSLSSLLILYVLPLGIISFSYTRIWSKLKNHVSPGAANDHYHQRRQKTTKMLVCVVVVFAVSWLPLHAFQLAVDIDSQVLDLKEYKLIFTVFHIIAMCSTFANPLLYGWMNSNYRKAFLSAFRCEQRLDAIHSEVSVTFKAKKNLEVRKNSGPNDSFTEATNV
Assay: Radioligand binding assay ([125I]PYY, KAN-Ts cell membranes)
Conditions: average of results, read-out: IC50
Protocol: Radioligand Binding Assay
KAN-Ts endogenously expressing Y2 receptors were used for the radioligand binding assay. Cells were grown to confluence on 150 cm^2 tissue culture plates, washed with phosphate-buffered saline (PBS), and scraped into 50 mL tubes. After centrifugation, the supernatant was aspirated, and the pellets frozen and stored at −80° C. Thawed pellets were homogenized with a polytron tissue grinder for 15 sec in 20 mM Tris-HCl, 5 mM EDTA. The homogenate was centrifuged at 800×g for 5 min and the collected supernatant was recentrifuged at 25000×g for 25 min. The resulting pellet was resuspended in binding buffer (20 mM HEPES, 120 mM NaCl, 0.22 mM KH2PO4, 1.3 mM CaCl2, 0.8 mM MgSO4). Membranes were incubated with [^125I]PYY (80 pM) in the presence or absence of test compound for 1 h at rt. The reaction was stopped by filtration through GF/C filter plates pre-soaked in 0.3% polyethylenimine and subsequently washed with Tris 50 mM, 5 mM EDTA buffer. Plates were dried for 1 h in a 55° C. oven, scintillation fluid was added and the radioactivity was counted in a Packard TopCount. Specific binding to the NPY receptor subtypes was determined by radioactivity that was bound in the presence of […]. Each binding experiment was repeated three to eight times, each in duplicate. IC50 values (i.e. concentration of unlabelled peptide or antagonist required to compete for 50% of specific binding to the radioligand) were calculated using the GraphPad Prism software (GraphPad Software Inc., San Diego Calif.) with a fit to a sigmoidal dose response curve. Data for compounds tested are presented in Tables 1 and 2 as an average of results obtained.

CCC(CC)C(=O)Nc1ccc(N2CCN(C(C(=O)OC)c3ccccc3)C(C(=O)OC)C2)c(F)c1 (single isomer, unassigned; diastereomer 1) [Example 269, 4-[4-(2-Ethyl-butyrylamino)-2-fluoro-phenyl]-1-(methoxycarbonyl-phenyl-methyl)-piperazine-2-carboxylic acid methyl ester (diastereomer 1)]
IC50 (Table 2, [125I]PYY 80 pM): 2.3 µM

CCC(CC)C(=O)Nc1ccc(N2CCN(C(C(=O)OC)c3ccccc3)C(C(=O)OC)C2)c(F)c1 (single isomer, unassigned; diastereomer 2) [Example 265, 4-[4-(2-Ethyl-butyrylamino)-2-fluoro-phenyl]-1-(methoxycarbonyl-phenyl-methyl)-piperazine-2-carboxylic acid methyl ester (diastereomer 2)]
IC50 (Table 2, [125I]PYY 80 pM): 0.6 µM

CC[C@H](C)C(=O)Nc1ccc(N2CCC(C(C(=O)N(CC)CC)c3ccccc3)CC2)c(C#N)c1 (stereo in doubt) [Example 218, N-{3-Cyano-4-[4-(diethylcarbamoyl-phenyl-methyl)-piperidin-1-yl]-phenyl}-2-methyl-butyramide]
IC50 (Table 2, [125I]PYY 80 pM): 0.03 µM

CCC(CC)C(=O)Nc1ccc(N2CCN(C(C(=O)N3CCCC3)c3ccccc3)CC2)c(F)c1 (stereo not shown) [Example 1, 2-Ethyl-N-{3-fluoro-4-[4-(2-oxo-1-phenyl-2-pyrrolidin-1-yl-ethyl)-piperazin-1-yl]-phenyl}-butyramide]
IC50 (Table 1, [125I]PYY 80 pM): 0.058 µM

CCC(CC)C(=O)Nc1ccc(N2CCN(Cc3ccccc3C(=O)OC)CC2)c(F)c1 [Example 2, 2-{4-[4-(2-Ethyl-butyrylamino)-2-fluoro-phenyl]-piperazin-1-ylmethyl}-benzoic acid methyl ester]
IC50 (Table 1, [125I]PYY 80 pM): 2.35 µM

CCC(CC)C(=O)Nc1ccc(N2CCN(Cc3cccc(C(=O)N4CCOCC4)c3)CC2)c(F)c1 [Example 3, 2-Ethyl-N-(3-fluoro-4-{4-[3-(morpholine-4-carbonyl)-benzyl]-piperazin-1-yl}-phenyl)-butyramide]
IC50 (Table 1, [125I]PYY 80 pM): 0.56 µM

CCC(CC)C(=O)Nc1ccc(N2CCN(Cc3ccccc3C(=O)N(CC)CC)CC2)c(F)c1 [Example 4, N,N-Diethyl-2-{4-[4-(2-ethyl-butyrylamino)-2-fluoro-phenyl]-piperazin-1-ylmethyl}-benzamide]
IC50 (Table 1, [125I]PYY 80 pM): 0.37 µM

CCC(CC)C(=O)Nc1ccc(N2CCN(Cc3ccccc3C(=O)N3CCOCC3)CC2)c(F)c1 [Example 5, 2-Ethyl-N-(3-fluoro-4-{4-[2-(morpholine-4-carbonyl)-benzyl]-piperazin-1-yl}-phenyl)-butyramide]
IC50 (Table 1, [125I]PYY 80 pM): 1.9 µM

CCC(CC)C(=O)Nc1ccc(N2CCN(C(C(=O)N(CC)CC)c3ccccc3)CC2)c(F)c1 (stereo not shown) [Example 6, N-{4-[4-(Diethylcarbamoyl-phenyl-methyl)-piperazin-1-yl]-3-fluoro-phenyl}-2-ethyl-butyramide]
IC50 (Table 1, [125I]PYY 80 pM): 0.071 µM

CCNC(=O)C(c1ccccc1)N1CCN(c2ccc(NC(=O)C(CC)CC)cc2F)CC1 (stereo not shown) [Example 7, 2-Ethyl-N-{4-[4-(ethylcarbamoyl-phenyl-methyl)-piperazin-1-yl]-3-fluoro-phenyl}-butyramide]
IC50 (Table 1, [125I]PYY 80 pM): 0.377 µM

CCN(CC)C(=O)C(c1ccccc1)C1CCN(c2ccc(NC(=O)Nc3c(C)noc3C)cc2F)CC1 (stereo not shown) [Example 8, 2-(1-{4-[3-(3,5-Dimethyl-isoxazol-4-yl)-ureido]-2-fluoro-phenyl}-piperidin-4-yl)-N,N-diethyl-2-phenyl-acetamide]
IC50 (Table 1, [125I]PYY 80 pM): 0.01 µM

CCN(CC)C(=O)C(c1ccccc1)C1CCN(c2ccc(NC(=O)Cc3c(C)noc3C)cc2F)CC1 (stereo not shown) [Example 9, 2-(1-{4-[2-(3,5-Dimethyl-isoxazol-4-yl)-acetylamino]-2-fluoro-phenyl}-piperidin-4-yl)-N,N-diethyl-2-phenyl-acetamide]
IC50 (Table 1, [125I]PYY 80 pM): 0.014 µM

CCC(CC)C(=O)Nc1ccc(N2CCC(C(C(=O)N(CC)CC)c3ccccc3)CC2)c(F)c1 (stereo not shown) [Example 11, N-{4-[4-(Diethylcarbamoyl-phenyl-methyl)-piperidin-1-yl]-3-fluoro-phenyl}-2-ethyl-butyramide]
IC50 (Table 1, [125I]PYY 80 pM): 0.012 µM

CCN(CC)C(=O)C(c1ccccc1)C1CCN(c2ccc(NC(=O)c3c(C)noc3C)cc2F)CC1 (stereo not shown) [Example 12, 3,5-Dimethyl-isoxazole-4-carboxylic acid {4-[4-(diethylcarbamoyl-phenyl-methyl)-piperidin-1-yl]-3-fluoro-phenyl}-amide]
IC50 (Table 1, [125I]PYY 80 pM): 0.026 µM

CCNC(=O)C(c1ccccc1)C1CCN(c2ccc(NC(=O)Cc3c(C)noc3C)cc2F)CC1 (stereo not shown) [Example 13, 2-(1-{4-[2-(3,5-Dimethyl-isoxazol-4-yl)-acetylamino]-2-fluoro-phenyl}-piperidin-4-yl)-N-ethyl-2-phenyl-acetamide]
IC50 (Table 1, [125I]PYY 80 pM): 0.058 µM

CCNC(=O)C(c1ccccc1)C1CCN(c2ccc(NC(=O)C(CC)CC)cc2F)CC1 (stereo not shown) [Example 14, 2-Ethyl-N-{4-[4-(ethylcarbamoyl-phenyl-methyl)-piperidin-1-yl]-3-fluoro-phenyl}-butyramide]
IC50 (Table 1, [125I]PYY 80 pM): 0.112 µM

CCNC(=O)C(c1ccccc1)C1CCN(c2ccc(NC(=O)Nc3c(C)cccc3C)cc2F)CC1 (stereo not shown) [Example 15, 2-(1-{4-[3-(2,6-Dimethyl-phenyl)-ureido]-2-fluoro-phenyl}-piperidin-4-yl)-N-ethyl-2-phenyl-acetamide]
IC50 (Table 1, [125I]PYY 80 pM): 0.162 µM

CCCC(CCC)C(=O)Nc1ccc(N2CCC(C(C(=O)NCC)c3ccccc3)CC2)c(F)c1 (stereo not shown) [Example 16, 2-Propyl-pentanoic acid {4-[4-(ethylcarbamoyl-phenyl-methyl)-piperidin-1-yl]-3-fluoro-phenyl}-amide]
IC50 (Table 1, [125I]PYY 80 pM): 0.28 µM

CCNC(=O)C(c1ccccc1)C1CCN(c2ccc(NC(=O)NCc3ccc(F)cc3)cc2F)CC1 (stereo not shown) [Example 17, N-Ethyl-2-(1-{2-fluoro-4-[3-(4-fluoro-benzyl)-ureido]-phenyl}-piperidin-4-yl)-2-phenyl-acetamide]
IC50 (Table 1, [125I]PYY 80 pM): 1 µM

CCNC(=O)C(c1ccccc1)C1CCN(c2ccc(NC(=O)C(C)C)cc2)CC1 (stereo not shown) [Example 18, N-{4-[4-(Ethylcarbamoyl-phenyl-methyl)-piperidin-1-yl]-phenyl}-isobutyramide]
IC50 (Table 1, [125I]PYY 80 pM): 4 µM

CCNC(=O)C(c1ccccc1)C1CCN(c2ccc(NC(=O)CC3CCCCC3)cc2F)CC1 (stereo not shown) [Example 19, 2-{1-[4-(2-Cyclohexyl-acetylamino)-2-fluoro-phenyl]-piperidin-4-yl}-N-ethyl-2-phenyl-acetamide]
IC50 (Table 1, [125I]PYY 80 pM): 10 µM

CCN(CC)C(=O)C(c1ccccc1)N1CCN(c2ccc(NC(=O)Nc3c(C)noc3C)cc2F)CC1 (stereo not shown) [Example 20, 2-(4-{4-[3-(3,5-Dimethyl-isoxazol-4-yl)-ureido]-2-fluoro-phenyl}-piperazin-1-yl)-N,N-diethyl-2-phenyl-acetamide]
IC50 (Table 1, [125I]PYY 80 pM): 0.016 µM

CCN(CC)C(=O)C(c1ccccc1)N1CCN(c2ccc(NC(=O)Cc3c(C)noc3C)cc2F)CC1 (stereo not shown) [Example 21, 2-(4-{4-[2-(3,5-Dimethyl-isoxazol-4-yl)-acetylamino]-2-fluoro-phenyl}-piperazin-1-yl)-N,N-diethyl-2-phenyl-acetamide]
IC50 (Table 1, [125I]PYY 80 pM): 0.02 µM

CCN(CC)C(=O)C(c1ccccc1)N1CCN(c2ccc(NC(=O)c3c(C)noc3C)cc2F)CC1 (stereo not shown) [Example 22, 3,5-Dimethyl-isoxazole-4-carboxylic acid {4-[4-(diethylcarbamoyl-phenyl-methyl)-piperazin-1-yl]-3-fluoro-phenyl}-amide]
IC50 (Table 1, [125I]PYY 80 pM): 0.026 µM

CCNC(=O)C(c1ccccc1)N1CCN(c2ccc(NC(=O)Nc3c(C)noc3C)cc2F)CC1 (stereo not shown) [Example 23, 2-(4-{4-[3-(3,5-Dimethyl-isoxazol-4-yl)-ureido]-2-fluoro-phenyl}-piperazin-1-yl)-N-ethyl-2-phenyl-acetamide]
IC50 (Table 1, [125I]PYY 80 pM): 0.042 µM

CCNC(=O)C(c1ccccc1)N1CCN(c2ccc(NC(=O)Cc3c(C)noc3C)cc2F)CC1 (stereo not shown) [Example 24, 2-(4-{4-[2-(3,5-Dimethyl-isoxazol-4-yl)-acetylamino]-2-fluoro-phenyl}-piperazin-1-yl)-N-ethyl-2-phenyl-acetamide]
IC50 (Table 1, [125I]PYY 80 pM): 0.176 µM

CCNC(=O)C(c1ccccc1)N1CCN(c2ccc(NC(=O)Nc3cc(C)ccc3C)cc2F)CC1 (stereo not shown) [Example 25, 2-(4-{4-[3-(2,5-Dimethyl-phenyl)-ureido]-2-fluoro-phenyl}-piperazin-1-yl)-N-ethyl-2-phenyl-acetamide]
IC50 (Table 1, [125I]PYY 80 pM): 0.26 µM

CCNC(=O)C(c1ccccc1)N1CCN(c2ccc(NC(=O)NCc3ccc(F)cc3)cc2F)CC1 (stereo not shown) [Example 26, N-Ethyl-2-(4-{2-fluoro-4-[3-(4-fluoro-benzyl)-ureido]-phenyl}-piperazin-1-yl)-2-phenyl-acetamide]
IC50 (Table 1, [125I]PYY 80 pM): 2 µM
